Read-outs that look alike come from different tables or passages of the source.

One test has as its target T1, human CB2 receptors (Homo sapiens, UniProt P34972).
T1 construct: expressed in transfected cells; host or cells: CHO cells
The test is described as follows: functional cAMP assay, human CB2. Format: cell-based. Particulars: CHO cells expressing human CB2, cAMP; read-out: human CB2 EC50. A digest of the protocol:
(§1)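 Compound exposure lasted 30 min at 30 °C in IBMX (1 mM)-containing Krebs Ringer bicarbonate buffer, applied to human CB1- or CB2-expressing CHO cells. Lysates were read by time-resolved FRET cAMP detection, converted via cAMP standard curve (10 μM–0.13 nM), and EC50 values calculated.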
A general note: Changes in cAMP serve as a functional read-out for many G protein-coupled receptors.

The target in the next test is T2, human CB1 receptors (Homo sapiens, UniProt P21554).
T2 construct: expressed in transfected cells; host or cells: CHO cells
The test is described as follows: functional cAMP assay, human CB1. Format: cell-based. In outline:
as §1

[1] abbreviates: CHO cells expressing human CB1, cAMP, read-out: human CB1 EC50.

T1 sequence (P34972 whole entry): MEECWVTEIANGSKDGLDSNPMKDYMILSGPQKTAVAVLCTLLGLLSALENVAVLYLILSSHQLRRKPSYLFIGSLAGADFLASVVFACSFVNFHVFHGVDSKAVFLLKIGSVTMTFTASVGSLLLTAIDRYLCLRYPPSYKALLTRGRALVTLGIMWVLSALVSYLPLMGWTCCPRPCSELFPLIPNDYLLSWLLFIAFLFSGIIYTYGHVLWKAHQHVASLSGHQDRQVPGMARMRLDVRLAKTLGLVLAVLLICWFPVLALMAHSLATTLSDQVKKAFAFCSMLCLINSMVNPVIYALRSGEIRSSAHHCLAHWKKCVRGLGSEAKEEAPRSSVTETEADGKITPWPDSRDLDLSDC
T2 sequence (P21554 whole entry): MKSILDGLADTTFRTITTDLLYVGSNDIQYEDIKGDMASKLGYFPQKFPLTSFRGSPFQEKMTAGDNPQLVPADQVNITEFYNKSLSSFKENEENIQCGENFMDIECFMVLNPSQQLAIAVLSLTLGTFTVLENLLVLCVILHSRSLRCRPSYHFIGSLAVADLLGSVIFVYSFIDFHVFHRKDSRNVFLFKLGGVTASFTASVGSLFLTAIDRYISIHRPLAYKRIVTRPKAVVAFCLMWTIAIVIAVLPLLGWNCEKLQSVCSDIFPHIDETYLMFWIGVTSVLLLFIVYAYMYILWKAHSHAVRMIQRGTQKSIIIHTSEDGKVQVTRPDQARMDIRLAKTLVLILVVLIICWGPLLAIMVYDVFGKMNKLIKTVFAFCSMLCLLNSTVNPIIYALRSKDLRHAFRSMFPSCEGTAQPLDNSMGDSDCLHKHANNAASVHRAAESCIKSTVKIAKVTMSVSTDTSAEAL

Regarding `CC(C)(C)c1nc(N2CCOCC2)c2nn[nH]c2n1` [Example 58], the figures for the EC50 at human CB2 receptors and on human CB1 receptors (setting [1]) were 337 nM and more than 10000 nM, respectively.

Turning to `COc1ccc(Cn2nnc3c(N4CC[C@H](O)[C@@H]4CO)nc(C(C)(C)C)nc32)cc1` [Example 159, (2S,3S)-1-[5-tert-Butyl-3-(4-methoxy-benzyl)-3H-[1,2,3]triazolo[4,5-d]pyrimidin-7-yl]-2-hydroxymethyl-pyrrolidin-3-ol], the 50% effective concentration (EC50) was 35.8 nM at human CB2 receptors and more than 10000 nM on human CB1 receptors (setting [1]).

For the compound `CC(C)(C)c1nc(N2CCC(F)(F)C2)c2nnn(Cc3c(C(F)(F)F)ccc(Cl)c3Cl)c2n1` [Example 123, 5-tert-Butyl-3-(2,3-dichloro-6-trifluoromethyl-benzyl)-7-(3,3-difluoro-pyrrolidin-1-yl)-3H-[1,2,3]triazolo[4,5-d]pyrimidine], the figures for the EC50 on human CB2 receptors and on human CB1 receptors (setting [1]) were 0.8 nM and 306 nM, respectively.

`COC[C@@H]1CCCN1c1nc(C(C)(C)C)nc2c1nnn2Cc1ccccc1Cl` [Example 45, 5-tert-Butyl-3-(2-chloro-benzyl)-7-((S)-2-methoxymethyl-pyrrolidin-1-yl)-3H-[1,2,3]triazolo[4,5-d]pyrimidine]: the 50% effective concentration (EC50) is 52.2 nM on human CB2 receptors and more than 10000 nM on human CB1 receptors (setting [1]).

Take `CC(C)(C)c1nc(N2CC[C@H](O)C2)c2nnn(Cc3ncccc3Cl)c2n1` [Example 138, (S)-1-[5-tert-Butyl-3-(3-chloro-pyridin-2-ylmethyl)-3H-[1,2,3]triazolo[4,5-d]pyrimidin-7-yl]-pyrrolidin-3-ol]: the EC50 on human CB2 receptors is 0.4 nM; on human CB1 receptors (setting [1]), more than 10000 nM.

As for `CC1CCCN1c1nc(C(C)(C)C)nc2c1nnn2Cc1ccccc1Cl` (stereo not shown) [Example 30, 5-tert-Butyl-3-(2-chloro-benzyl)-7-(2-methyl-pyrrolidin-1-yl)-3H-[1,2,3]triazolo[4,5-d]pyrimidine], the EC50 at human CB2 receptors is 26.9 nM; at human CB1 receptors (setting [1]), more than 10000 nM.

`CC(C)(C)c1nc(N2CC[C@@](C)(O)C2)c2nnn(Cc3ccccc3S(C)(=O)=O)c2n1` [Example 223-b, (R)-1-(5-tert-butyl-3-(2-(methylsulfonyl)benzyl)-3H-[1,2,3]triazolo[4,5-d]pyrimidin-7-yl)-3-methylpyrrolidin-3-ol]: the EC50 was 3 nM at human CB2 receptors and 246 nM at human CB1 receptors (setting [1]).

`CC(C)(C)c1nc(N2CC[C@@](C)(O)C2)c2nnn(Cc3ncccc3Cl)c2n1` [Example 224-b, (R)-1-(5-tert-butyl-3-((3-chloropyridin-2-yl)methyl)-3H-[1,2,3]triazolo[4,5-d]pyrimidin-7-yl)-3-methylpyrrolidin-3-ol]: the figures for the EC50 at human CB2 receptors and on human CB1 receptors (setting [1]) were 6.4 nM and more than 10000 nM, respectively.

For `CC(C)(C)c1nc(N2CC[C@H](O)C2)c2nnn(Cc3ccccc3C(F)(F)F)c2n1` [Example 142, (S)-1-[5-tert-Butyl-3-(2-trifluoromethyl-benzyl)-3H-[1,2,3]triazolo[4,5-d]pyrimidin-7-yl]-pyrrolidin-3-ol], the EC50 on human CB2 receptors was 0.2 nM; at human CB1 receptors (setting [1]), more than 10000 nM.

Turning to `CC(C)(C)c1nc(N2CC[C@H](O)C2)c2nnn(Cc3ccccc3)c2n1` [Example 217, (3S)-1-(3-benzyl-5-tert-butyl-triazolo[4,5-d]pyrimidin-7-yl)pyrrolidin-3-ol], the EC50 is 3.3 nM on human CB2 receptors and more than 10000 nM on human CB1 receptors (setting [1]).

Take `CC(C)(C)c1nc(N2CCC(F)(F)C2)c2nnn(CCc3ccccc3Cl)c2n1` [Example 103, 5-tert-Butyl-3-[2-(2-chloro-phenyl)-ethyl]-7-(3,3-difluoro-pyrrolidin-1-yl)-3H-[1,2,3]triazolo[4,5-d]pyrimidine]: the EC50 at human CB2 receptors amounted to 0.4 nM; at human CB1 receptors (setting [1]), 415 nM.

For the compound `CC(C)(C)c1nc(N2CCC(F)(F)C2)c2nnn(CCc3ccccc3)c2n1` [Example 84, 5-tert-Butyl-7-(3,3-difluoro-pyrrolidin-1-yl)-3-phenethyl-3H-[1,2,3]triazolo[4,5-d]pyrimidine], the values for the EC50 at human CB2 receptors and on human CB1 receptors (setting [1]) were 1.2 nM and 451 nM, respectively.

With `CC(C)(C)c1nc(N2CCC(F)(F)C2)c2nnn(Cc3ccncc3Cl)c2n1` [Example 129, 5-tert-Butyl-3-(3-chloro-pyridin-4-ylmethyl)-7-(3,3-difluoro-pyrrolidin-1-yl)-3H-[1,2,3]triazolo[4,5-d]pyrimidine], the EC50 amounted to 0.1 nM on human CB2 receptors and 670 nM at human CB1 receptors (setting [1]).

With `Cn1ncnc1Cn1nnc2c(N3CC[C@H](O)[C@@H]3CO)nc(C(C)(C)C)nc21` [Example 169, (2S,3S)-1-[5-tert-Butyl-3-(2-methyl-2H-[1,2,4]triazol-3-ylmethyl)-3H-[1,2,3]triazolo[4,5-d]pyrimidin-7-yl]-2-hydroxymethyl-pyrrolidin-3-ol], the EC50 at human CB2 receptors is 199 nM; on human CB1 receptors it was more than 10000 nM.

Regarding `CC(C)(C)c1nc(N2CC[C@H](F)C2)c2nnn(Cc3ccccc3Cl)c2n1` [Example 36, 5-tert-Butyl-3-(2-chloro-benzyl)-7-((S)-3-fluoro-pyrrolidin-1-yl)-3H-[1,2,3]triazolo[4,5-d]pyrimidine], the EC50 turned out to be 0.6 nM at human CB2 receptors and 432 nM at human CB1 receptors (setting [1]).

As for `CC(C)(C)c1nc(N2CC[C@H](O)[C@@H]2CO)c2nnn(Cc3ncccc3Cl)c2n1` [Example 167, (2S,3S)-1-[5-tert-Butyl-3-(3-chloro-pyridin-2-ylmethyl)-3H-[1,2,3]triazolo[4,5-d]pyrimidin-7-yl]-2-hydroxymethyl-pyrrolidin-3-ol], the half-maximal effective concentration (EC50) on human CB2 receptors is 3.8 nM; at human CB1 receptors (setting [1]) it was more than 10000 nM.

Consider `CC(C)(C)c1nc(N2CCC[C@@H](O)C2)c2nnn(Cc3ccccc3Cl)c2n1` [Example 34, (R)-1-[5-tert-Butyl-3-(2-chloro-benzyl)-3H-[1,2,3]triazolo[4,5-d]pyrimidin-7-yl]-piperidin-3-ol], for which the figures for the concentration giving a half-maximal response (EC50) at human CB2 receptors and at human CB1 receptors (setting [1]) were 27.5 nM and 2270 nM, respectively.

`Cc1nnc(Cn2nnc3c(N4CC[C@](C)(O)C4)nc(C(C)(C)C)nc32)o1` [Example 225-a, (S)-1-(5-tert-butyl-3-((5-methyl-1,3,4-oxadiazol-2-yl)methyl)-3H-[1,2,3]triazolo[4,5-d]pyrimidin-7-yl)-3-methylpyrrolidin-3-ol]: the EC50 on human CB2 receptors was 29.1 nM; on human CB1 receptors (setting [1]), more than 10000 nM.

For `Cn1nnnc1Cn1nnc2c(N3CC[C@@](C)(O)C3)nc(C(C)(C)C)nc21` [Example 227-b, (R)-1-(5-tert-butyl-3-((1-methyl-1H-tetrazol-5-yl)methyl)-3H-[1,2,3]triazolo[4,5-d]pyrimidin-7-yl)-3-methylpyrrolidin-3-ol], the EC50 on human CB2 receptors was 43.5 nM; at human CB1 receptors (setting [1]), more than 10000 nM.

`CC(C)(C)c1nc(N2CCC(c3ccccc3)C2)c2nnn(Cc3ccccc3Cl)c2n1` (stereo not shown) [Example 195, 5-tert-Butyl-3-(2-chloro-benzyl)-7-(3-phenyl-pyrrolidin-1-yl)-3H-[1,2,3]triazolo[4,5-d]pyrimidine]: the figures for the EC50 on human CB2 receptors and on human CB1 receptors were 467 nM and more than 10000 nM, respectively.

Consider `C[C@@H]1CN(c2nc(C(C)(C)C)nc3c2nnn3Cc2ccccc2Cl)C[C@H](C)O1` [Example 16, 5-tert-Butyl-3-(2-chloro-benzyl)-7-((2R,6S)-2,6-dimethyl-morpholin-4-yl)-3H-[1,2,3]triazolo[4,5-d]pyrimidine], for which the EC50 at human CB2 receptors was 286 nM; at human CB1 receptors, more than 10000 nM.

For `CC(C)(C)c1nc(N2CCC(F)(F)C2)c2nnn(Cc3cc(Cl)ccc3Cl)c2n1` [Example 69, 5-tert-Butyl-3-(2,5-dichloro-benzyl)-7-(3,3-difluoro-pyrrolidin-1-yl)-3H-[1,2,3]triazolo[4,5-d]pyrimidine], the EC50 at human CB2 receptors turned out to be 0.3 nM; on human CB1 receptors (setting [1]) it was 276 nM.

As to `CC(C)(C)c1nc(N2CCC(F)(F)C2)c2nnn(Cc3ccccc3C(F)(F)F)c2n1` [Example 80, 5-tert-Butyl-7-(3,3-difluoro-pyrrolidin-1-yl)-3-(2-trifluoromethyl-benzyl)-3H-[1,2,3]triazolo[4,5-d]pyrimidine], the figures for the EC50 at human CB2 receptors and at human CB1 receptors (setting [1]) were 0.3 nM and 69.3 nM, respectively.

With `CC1(C)CCN(c2nc(C(C)(C)C)nc3c2nnn3Cc2ccccc2Cl)C1` [Example 189, 5-tert-Butyl-3-(2-chloro-benzyl)-7-(3,3-dimethyl-pyrrolidin-1-yl)-3H-[1,2,3]triazolo[4,5-d]pyrimidine], the results for the EC50 at human CB2 receptors and at human CB1 receptors (setting [1]) were 33.2 nM and more than 10000 nM, respectively.

In the case of `CC(C)(C)c1nc(N2CCC(F)(F)C2)c2nnn(Cc3c(F)ccc(Cl)c3Cl)c2n1` [Example 111, 5-tert-Butyl-3-(2,3-dichloro-6-fluoro-benzyl)-7-(3,3-difluoro-pyrrolidin-1-yl)-3H-[1,2,3]triazolo[4,5-d]pyrimidine], the EC50 on human CB2 receptors turned out to be 0.2 nM; at human CB1 receptors (setting [1]) it was 137 nM.

For the compound `CC(C)(C)c1nc(N2CCC(F)(F)C2)c2nnn(Cc3cc(Cl)cnc3Cl)c2n1` [Example 99, 5-tert-Butyl-3-(2,5-dichloro-pyridin-3-ylmethyl)-7-(3,3-difluoro-pyrrolidin-1-yl)-3H-[1,2,3]triazolo[4,5-d]pyrimidine], the figures for the EC50 at human CB2 receptors and on human CB1 receptors (setting [1]) were 0.2 nM and 497 nM, respectively.

Turning to `CC(C)(C)c1nc(N2CCC(F)(F)C2)c2nnn(Cc3cccc(Cl)c3)c2n1` [Example 65, 5-tert-Butyl-3-(3-chloro-benzyl)-7-(3,3-difluoro-pyrrolidin-1-yl)-3H-[1,2,3]triazolo[4,5-d]pyrimidine], the figures for the EC50 on human CB2 receptors and at human CB1 receptors (setting [1]) were 0.9 nM and 220 nM, respectively.

Take `CC(C)(C)c1nc(N2CC[C@](C)(O)C2)c2nnn(Cc3ccccc3Cl)c2n1` [Example 221-a, (S)-1-(5-tert-butyl-3-(2-chlorobenzyl)-3H-[1,2,3]triazolo[4,5-d]pyrimidin-7-yl)-3-methylpyrrolidin-3-ol]: the concentration giving a half-maximal response (EC50) was found to be 3 nM at human CB2 receptors and 1800 nM at human CB1 receptors (setting [1]).

On to `Cc1nc(Cn2nnc3c(N4CCC(F)(F)C4)nc(C(C)(C)C)nc32)n(C)n1` [Example 163, 5-tert-Butyl-7-(3,3-difluoro-pyrrolidin-1-yl)-3-(2,5-dimethyl-2H-[1,2,4]triazol-3-ylmethyl)-3H-[1,2,3]triazolo[4,5-d]pyrimidine], for which the figures for the EC50 at human CB2 receptors and at human CB1 receptors (setting [1]) were 5.5 nM and more than 10000 nM, respectively.

In general, EC50 refers to the concentration needed to bring the measured effect to its halfway point.

The values above are taken from US8741906B2 (priority 2011, dated 2014).
